SMILES | melting point [°C]
O=C(O)C1CCCN(C(=O)c2ccccc2)C1 (stereo not drawn) | 189 to 191
O=C(c1ccc(Cl)c([N+](=O)[O-])c1)N1CCCCC1 | 74 to 76
N#Cc1ccnc(OCc2ccccc2)c1 | 74 to 76
COCc1cc([N+](=O)[O-])ccc1N | 83 to 85
COc1cc(C)cc2c(C)c(C(C)N)oc12 (stereo not drawn) | 56 to 58
C#CCNC(=O)NC1(C(=O)O)CCc2ccccc21 (stereo not drawn) | 181 to 183
Cc1ccccc1CC(N)=NO | 121 to 123
Cc1ccc(Cl)c(NC(=O)C(C)Cl)c1Cl (stereo not drawn) | 149 to 151
O=C(O)CCc1csc2nc(C3CC3)cn12 | 240 to 242
O=C(O)Cc1ccn(-c2ccc(F)cc2)n1 | 97 to 99
CC(C)(C)OC(=O)Nc1cc(C(=O)O)ccc1F | 177 to 179
O=C(NCC1CCCNC1)c1ccccc1 (stereo not drawn) | 82 to 84
Oc1cccc2cn[nH]c12 | 181 to 183
COC(=O)c1ccccc1NC(=O)CBr | 78 to 80
CC1CCN(C(=O)c2ccccc2N)CC1 | 59 to 61
Nn1c(S)nnc1Cc1ccccc1 | 179 to 181
O=C(O)c1ccccc1OCc1ccc(Cl)cc1Cl | 162 to 164
Cc1ccc(CN(C)C(N)=O)cc1 | 146 to 148
CCOc1ccc(S(=O)(=O)N(C)C)cc1N | 124 to 126
CCc1nn(C)c2[nH]nc(N)c12 | 123 to 125
O=C(O)c1cc(S(=O)(=O)N2CCOCC2)ccc1Cl | 183 to 185
N#CCC(=O)c1ccc2c(c1)OCO2 | 134 to 136
N#CC1(CS(N)(=O)=O)CCCC1 | 72 to 74
O=C(O)CC1C=CS(=O)(=O)C1 (stereo not drawn) | 81 to 83

SMILES | melting point [°C]
Clc1ccc2nnc(-c3ccccc3)n2n1 | 201 to 203
COC(=O)CCc1ccc(N)cc1 | 39 to 41
CC(=O)NC1=NN(C(C)=O)C(C)(c2ccccc2)S1 (stereo not drawn) | 223 to 225
Nc1noc(-c2ccsc2)n1 | 196 to 198
CC1CCC(C(C)C)C(OC(=O)CO)C1 (stereo not drawn) | 85 to 87
Cc1ccc(I)cc1C(=O)O | 166 to 168
O=C(O)CNC(=O)CC(F)(F)F | 122 to 124
O=C(O)Cc1ccc(-n2cccn2)cc1 | 130 to 132
CC(Cl)C(=O)Nc1ccc2c(c1)OC1(CCCCC1)O2 (stereo not drawn) | 98 to 100
COc1ccc(S(=O)(=O)NC(C)(C)C)cc1N | 119 to 121
O=C(O)CCC(=O)N1CCOc2ccccc21 | 109 to 111
CN(C)C1CCN(c2ccc(N)cc2)CC1 | 119 to 121
COc1ccc(N)c2cccnc12 | 155 to 157
O=C(c1ccc(F)cc1Cl)N1CCNCC1 | 75 to 77
O=C(O)c1scnc1C1CC1 | 204 to 206
Cc1csc(NC(=O)CSCC(N)C(=O)O)n1 (stereo not drawn) | 169 to 171
COc1ccc(C(=O)c2ccccc2)c(OC)c1 | 81 to 83
COCCOc1cn(-c2ccccc2)nc1C(=O)O | 103 to 105
COc1ccccc1Cn1cnc2cc(C)c(C)cc21 | 126 to 128
Nc1ccc(CC2CC(=O)NC2=O)cc1 (stereo not drawn) | 138 to 140
CC(=O)NCCc1ccc(C(=O)CCl)cc1F | 97 to 99
Cc1[nH]c2ccccc2c1C(=O)CBr | 203 to 205
Cc1nnnn1C(Cc1ccccc1)C(=O)O (stereo not drawn) | 167 to 169
Nc1c(-c2cccs2)nc2ccccn12 | 188 to 190

SMILES | melting point [°C]
CC(C)C[C@H](NC(=O)OC(C)(C)C)C(=O)O | 87 to 89
Cc1occc1-c1nnc(S)n1C | 118 to 120
O=C(O)C=C1CCCC1 | 61 to 63
Cn1c(C=O)nc2ccccc21 | 119 to 122
CCCCCC(=O)Nc1cc(OC)c(OC)cc1C(=O)O | 178 to 180
O=C(O)c1ccc(Oc2cccc(Br)c2)nc1 | 154 to 156
Cc1nn(C)c(SCC(=O)O)c1C=O | 126 to 128
O=c1[nH]c(-c2cccc(C(F)(F)F)c2)cs1 | 182 to 184
Cc1cc(C)c(S(N)(=O)=O)cc1C(=O)O | 252 to 254
Clc1ccnc2[nH]ccc12 | 176 to 181
CC(C)S(=O)(=O)Cc1cccc(N)c1 | 113 to 115
CC(=O)NC1(C(=O)O)CCC(C)CC1 (stereo not drawn) | 211 to 213
Nc1nnc(-c2ccccc2Cl)[nH]1 | 218 to 220
NS(=O)(=O)Cc1cccnc1 | 154 to 156
COc1ccc(CC(=O)O)cc1S(=O)(=O)N1CCOCC1 | 116 to 118
N#Cc1cccc(CN2C(=O)CCc3ccccc32)c1 | 119 to 121
CC(=O)N(C)c1nc(C=O)cs1 | 164 to 166
Nc1nnc(-c2cccc3ccccc23)[nH]1 | 219 to 221
NCCCCN1CCN(CCO)CC1 | 90 to 92
O=C(CBr)C12CC3CC(CC(C3)C1)C2 | 59 to 61
O=S(=O)(Cl)c1csc2ccc(F)cc12 | 129 to 131
N#Cc1ccccc1/C=C/C(=O)O | 255 to 257
COC(=O)c1ccc2[nH]cc(C3CCNCC3)c2c1 | 169 to 171
O=C(O)C1(O)CCN(Cc2ccccc2)C1 (stereo not drawn) | 173 to 175

SMILES | melting point [°C]
Cc1cc(N)n(-c2cccc(Br)c2)n1 | 145 to 147
COc1ccccc1CC(N)=O | 127 to 129
Cn1cc(S(=O)(=O)NN)c(=O)n(C)c1=O | 134 to 136
COc1ccccc1C=NO | 86 to 88
CN(CC(=O)O)c1ncnc2nc[nH]c12 | 237 to 239
O=C(O)CCC(=O)NCC(=O)c1ccccc1Cl | 151 to 153
CSc1ccc(C(=O)CCl)cc1 | 72 to 74
NC(=O)c1ccsc1NC(=O)CCl | 148 to 150
Cc1cccc2c3c([nH]c12)C(N)CCC3 (stereo not drawn) | 130 to 132
CC(NO)c1ccc(F)cc1 (stereo not drawn) | 74 to 76
Cc1oc2cc(O)ccc2c(=O)c1-c1ccccc1Cl | 182 to 184
NS(=O)(=O)Cc1ccccc1[N+](=O)[O-] | 131 to 133
O=Cc1ccc(Oc2cccc([N+](=O)[O-])c2)cc1 | 59 to 61
NNC(=S)NC1CCCC1 | 76 to 78
Cn1cc([N+](=O)[O-])ccc1=O | 172 to 174
CC(C)(C)NS(=O)(=O)c1ccccc1NN | 122 to 124
Cc1nnnn1C(Cc1ccc(F)cc1)C(=O)O (stereo not drawn) | 152 to 154
Cc1cc(S(N)(=O)=O)sc1Br | 149 to 151
COC(=O)c1ccc(NC(=O)CCCCl)cc1 | 128 to 130
COc1cc(OC)cc(C(=O)NCC(=O)O)c1 | 91 to 93
Cc1nc2c(F)cccc2c(Cl)c1C | 95 to 97
COC(=O)C(=O)CC(=O)c1ccccc1OC | 80 to 84
Cc1csc(NC(=O)C2CCCNC2)n1 (stereo not drawn) | 164 to 166
O=C(O)C(=O)c1cnn(-c2ccccc2)c1 | 168 to 170

SMILES | melting point [°C]
O=Cc1cc(Cl)ccc1OCc1cccnc1 | 79 to 81
COc1cc(NC(C)=O)ccc1C(C)=O | 130 to 132
Cc1cc(N)nc(S)n1 | 295 to 297
CC1CC(O)CC(C)N1 (stereo not drawn) | 109 to 111
O=C(Nc1cccc(-c2nnco2)c1)OCC(F)(F)F | 170 to 172
O=c1ccc(S(=O)(=O)N2CCCCC2)c[nH]1 | 239 to 241
COc1ccc(C(=O)/C=C2\NC(=O)CS2)cc1 | 210 to 212
Nc1cnn(-c2ncccn2)c1 | 169 to 171
O=C1C2C3CC4C2C(=O)C2C1C3C42 (stereo not drawn) | 240 to 242
O=C(O)c1ccnc(-n2cncn2)c1 | 314 to 316
Brc1ccc2ncnc(N3CCNCC3)c2c1 | 99 to 101
Nc1ccc(CCn2cc(Br)cn2)cc1 | 65 to 67
O=C(O)c1cn(-c2ccccc2)nc1-c1ccc(-c2ccccc2)cc1 | 255 to 257
Cc1cc2n(n1)C(=O)C(C)C(=O)N2 (stereo not drawn) | 288 to 290
O=Cc1c[nH]c(-c2ccccc2)n1 | 159 to 161
O=[N+]([O-])c1ccc(O)c(Br)c1 | 111 to 113
CCOC(=O)c1c(C2CC2)csc1N | 70 to 72
COc1ccc(-c2nc(CC(=O)O)cs2)cc1 | 109 to 111
CC1=NN(c2ccccc2)C(=O)C1=NO | 131 to 133
CC(C)(C)c1ccc(Oc2ccc(C=O)cc2[N+](=O)[O-])cc1 | 156 to 158
O=[N+]([O-])c1ccc2[nH]c(-c3cscn3)nc2c1 | 257 to 259
O=C(O)C1CC1c1ccc(OCc2ccccc2)cc1 (stereo not drawn) | 147 to 149
NC1=NC(=O)c2ccccc21 | 208 to 210
COC(=O)c1nc2n(n1)CCCN2 | 173 to 175

SMILES | melting point [°C]
NOC1CCCCO1 (stereo not drawn) | 34 to 37
CC(Br)c1ccc([N+](=O)[O-])cc1 (stereo not drawn) | 33 to 35
O=C(Nc1ccc(Cl)cn1)C1CCNCC1 | 137 to 139
Cc1nc(C)c2c(C)c(C(=O)O)sc2n1 | 347 to 349
Cc1cc(N)n(-c2cccc(C(F)(F)F)c2)n1 | 88 to 92
O=C(CCl)Nc1nnc(-c2ccccc2)o1 | 219 to 221
O=C(Nc1ccc(Cl)cc1)Nc1ccccc1Br | 222 to 224
O=C(O)c1ccccc1SCc1cccs1 | 178 to 180
O=C(O)CCc1nnc(C2CCCC2)o1 | 62 to 64
O=C(O)C1CCC2CCCCC2C1 (stereo not drawn) | 57 to 59
COC(=O)c1cc(C(=O)OC)cc(-n2c(C)cc(C(=O)CCl)c2C)c1 | 153 to 155
Cc1cc(NS(=O)(=O)c2cccc(C#N)c2)no1 | 159 to 161
CN1CC(=O)N(c2cccc(N)c2)C1=O | 131 to 133
CCOc1ccc(Oc2ccc(C(F)(F)F)cc2N)cc1 | 45 to 47
O=C(O)CCOc1ccc(-c2ccccc2)cc1 | 174 to 176
O=C(O)C1(c2ccc(Br)cc2)CCCC1 | 176 to 178
CC1NCCn2c(C(=O)NC3CC3)ccc21 (stereo not drawn) | 128 to 130
Cc1cc(C)c2cc(C(=O)O)[nH]c2c1C | 227 to 229
Sc1nc2cc(Cl)ccc2n1CCOc1ccccc1 | 182 to 184
N#Cc1ccncc1C(=O)O | 175 to 177
COc1cc(C=CC(=O)O)ccc1OCC#N | 164 to 166
C=CCn1c(S)nnc1-c1ccoc1C | 293 to 295
O=C(O)c1cc(S(=O)(=O)Cl)c(F)cc1Cl | 144 to 146
